From patent US8895069B2, “Drug delivery system using hyaluronic acid-peptide conjugate micelle” (Postech Academy-Industry Foundation, priority 2011, dated 2014)
Ends that are not written are not given here.

Experiments:
[1] = tested on: retinal and choroidal neovascularization (CNV); assay: Laser-induced retinal and choroidal neovascularization (CNV); type: in vivo, Brovin-Norway (BN) male rats; conditions: negative control = 100%; intravitreal 10 μL, peptide concentration 10 mg/ml; 2 weeks after laser; conjugate = higher peptide content
Description: Four groups consisted of a negative control group, a hyaluronic acid test group, an anti-Flt1 peptide (GGNQWFI) (SEQ ID NO: 3) test group, a test group of the hyaluronic acid-peptide conjugate with a higher peptide content as prepared from Preparation Example 3 (HA-GGNQWFI(2)). The anti-Flt1 peptide sample and the hyaluronic acid-peptide conjugate sample were made to have an identical peptide concentration of 10 mg/ml. First, the rat was put under anesthesia by being treated with 0.2 mL of a mixed solution (1:1) of 100 mg/ml of ketamine hydrochloride and 20 mg/ml of xylazine hydrochloride. […] The effect of inhibiting retinal and choroidal neovascularization was determined with a fluorescence microscope analysis using dextran-FITC (MW=40,000) after 2 weeks from the laser-induced damage. After being put under anesthesia, the rat was injected with 500 μL of a dextran-FITC solution (25 mg/mL) at its tail vein, and in 5 minutes, the choroid was separated and observed with a fluorescence microscope equipped with a digital camera (Olympus, Tokyo, Japan). The obtained images were analyzed with Image J program (NIH, Bethesda, Md.).

[2] = tested on: corneal neovascularization; assay: Corneal neovascularization, genistein-loaded micelle (Experimental Example 13); type: in vivo, Albino Sprague Dawley male rats; conditions: rat cornea; samples in PBS: Avastin 10 mg/ml, conjugate and micelle 3.2 mg/ml peptide; control group 86%
[3] = TEM particle size of micelle; type: physicochemical; conditions: spherical particle, n=30
Description: The anti-Flt1 peptide (GGNQWFI) (SEQ ID NO: 3) and the hyaluronic acid-peptide conjugate with a lower peptide content as prepared from Preparation Example 3 were dissolved in 4004, of PBS to have a final peptide concentration of 1.25 mg/mL, respectively. The amount of the anti-Flt1 peptide contained in each solution was measured with a changeable UV transilluminator (DUT-260, Core Bio System, Korea) by using 312 nm of light source. The formation of the hyaluronic acid-peptide micelle in an aqueous solution was confirmed by using a transmission electron microscope (TEM) (Hitachi, Tokyo, Japan). For a TEM analysis, 10 μL of the hyaluronic acid-peptide conjugate solution was dropped onto a 300 mesh copper TEM grid with a carbon film and then was dried. The average particle size was calculated out from the diameters obtained from the images of 30 particles.
For a transmission electron microscope (TEM) (Hitachi, Tokyo, Japan) analysis, 10 μL of the solution of the drug-loaded, hyaluronic acid-peptide conjugate micelle was dropped onto a 300 mesh copper TEM grid with a carbon film and then was dried.

Substance: GGNQWFI [anti-Flt1 peptide, GGNQWFI]
- average intensity of the fluorescence of CNV lesion [1]: 61.4±4.4%

Substance: HA-GGNQWFI: hyaluronic acid (MW 100 kDa) conjugated with GGNQWFI, 20 peptides per one molecule of HA-TBA (also: conjugated to hyaluronic acid, about 20 peptides per HA)
- average ratio of the neovascular area [2]: 30%
- average diameter by TEM [3]: 234.5±20.6 nm
